Columns and labels:
P. pentosaceus 14/1 = experiment: Effect of pesticides on the growth of LAB (microtitration assay); assay type: cell-based, Pediococcus pentosaceus; settings: 48 h incubation, versus non-exposed cells
Description: (§1) The experiments were conducted in transparent 96-well polystyrene microplates. The final concentrations of tested pesticides were 20, 100, and 500 µg/mL. Each well was inoculated with an overnight culture of an individual LAB strain at the density of 1.8–2.4 × 10^9 CFU/mL (6.0–8.0 according to McFarland standard). Each strain was tested in 4 replicates. Negative controls were non-exposed bacterial cells in MRS or MRS-F broth. The test was performed at 30 or 37 °C for 48 h.

LAB strains [1] = test system: LAB strains; design: method as in PMID 28324568; settings: cited from earlier work
L. plantarum ISO = test system: L. plantarum ISO; design: method as in PMID 28578396; settings: 295 µM, MRS medium, log phase; cited from earlier work
[2] = test system: Enterococcus faecium E86, Lactococcus lactis subsp. lactis ATCC 11454, L. rhamnosus GG ATCC 53103, L. lactis Garvie ATCC 19256, Leuconostoc mesenteroides subsp.; design: method as in doi:10.1016/j.lwt.2019.02.037; settings: 500 mg/L; cited from earlier work
[3] = test system: cat (Felis catus) fibroblast cells; settings: cited from earlier work
LAB = test system: LAB; design: method as in earlier work; settings: concentrations above 2 ppm; cited from earlier work
LAB strains [4] = experiment: Binding of pesticides to the cell wall of LAB (extent of binding); settings: whole live LAB cells, initial 100 µg/mL, 24 h
Description: Overnight cultures of LAB in MRS/MRS-F broth were centrifuged (3864× g, 15 min), and biomass was washed with sterile ultrapure water and centrifuged again. This procedure was repeated until the MRS/MRS-F broth was completely washed. Next, the biomass of whole live LAB cells was suspended in sterile ultrapure water with an individual pesticide solution (at a final concentration of 100 µg/mL, v/v) and thoroughly mixed. The density of LAB cells was 1.8–2.4 × 10^9 CFU/mL (6.0–8.0 according to McFarland standard). The positive controls (standards) were individual pesticides without LAB strains. Negative controls were LAB strains suspended in sterile ultrapure water without pesticides. The samples were incubated anaerobically at 30 °C for 24 h with continuous orbital shaking (240 r.p.m.) (LAUDA Varioshake VS 8 OE Shaker, Dr. R. Wobser Gmbh & Co., Lauda-Königshofen, […]). Finally, the supernatants containing residual pesticide were collected by centrifugation (10,733× g, 20 min) and were filtered using sterile syringe filters (0.22 μm) and frozen in sterile vials until analysis at −20 °C.
Pesticides were analyzed according to Hafeez et al. (2015) using the HPLC-DAD technique with some modifications. For the qualitative–quantitative determination of pesticides, HPLC analysis was performed using a UHPLC+ Dionex UltiMate 3000 system (Thermo Fisher Scientific Inc., Waltham, MA, USA) equipped with a UV–Vis detector (Thermo Fisher Scientific Inc., Waltham, MA, USA) and NUCLEOSIL C18 column (4.6 × 250 mm, 5 µm particle size; Macherey-Nagel, Germany). Isocratic elution was carried out with 70/30 (v/v) acetonitrile/water as the mobile phase. The flow rate was set to 1.0 mL/min, and the column temperature was 25 °C. The injection volume was 20 µL. Detection and quantification were performed with two wavelengths: 219 nm for chlorpyrifos and coumaphos and 270 nm for imidacloprid. Quantification was performed using an external standard method. All measurements were made twice.

P. acidilactici 8/1 = experiment: Effect of pesticides on the growth of LAB (microtitration assay); assay type: cell-based, Pediococcus acidilactici; settings: 100 µg/mL, 48 h incubation, versus non-exposed cells
Description: as §1

[5] = test system: prostate epithelial WPM-Y1 cell line; design: method as in PMID 33456462; settings: 24 h, MTT assay; read-out: median inhibition value; cited from earlier work

For `CCOP(=S)(OCC)Oc1nc(Cl)c(Cl)cc1Cl` [chlorpyrifos], the bacterial growth (P. pentosaceus 14/1; 20 µg/mL) is listed as 99.94%, the “chlorpyrifos concentration at which some LAB strains were able to grow” value (LAB strains [1]) is listed as over 1400 µg/mL and the “effect on growth of L. plantarum ISO” value (L. plantarum ISO) is listed as “significantly reduced the growth”. For the same compound, the “effect on growth of LAB” value [2] was “did not affect the growth”.

For `CCOC(=O)CC(SP(=S)(OC)OC)C(=O)OCC` (stereo not shown) [Malathion], the “concentration at which maximum DNA damage was recorded” value [3] is given as 45000 µM.

In the case of `Cl[C@H]1[C@H](Cl)[C@@H](Cl)[C@@H](Cl)[C@H](Cl)[C@H]1Cl` [lindane], the “effect on lactic acid production by LAB” value (LAB) is given as “completely inhibited”.

For `CCOP(=S)(OCC)Oc1ccc2c(C)c(Cl)c(=O)oc2c1` [coumaphos], the bacterial growth (P. pentosaceus 14/1; 500 µg/mL) was 100.6% and the “pesticide binding by LAB (highest extent)” value (“pesticide binding by LAB” for short) (LAB strains [4]) was “up to 57%”.

In the case of `O=[N+]([O-])NC1=NCCN1Cc1ccc(Cl)nc1` [imidacloprid], the bacterial growth (P. acidilactici 8/1) is reported as 101.84%, the “pesticide binding by LAB” value (LAB strains [4]) is reported as at most 36% and the “pesticide binding by LAB” value (LAB strains [4]; listed as Imidacloprid) is reported as “about 36%”. For the same compound, the IC50 [5] was 23 µM.

In the case of `ClC1=C(Cl)C2(Cl)C3C4CC(C5OC45)C3C1(Cl)C2(Cl)Cl` (stereo not shown) [endrin], the “effect on lactic acid production by LAB” value (LAB) is listed as “completely inhibited”.

— publication PMC9740702, “Binding and Detoxification of Insecticides by Potentially Probiotic Lactic Acid Bacteria Isolated from Honeybee (Apis mellifera L.) Environment—An In Vitro Study” (Cells, 2022)
